Assay results: patent US10681909B2, “Herbicidal triazoles” (FMC Corporation, priority 2014, dated 2020)

Experiments:
[1] = system: pigweed; test: Test D preemergence; assay type: in vivo, Amaranthus retroflexus; conditions: for Plant response rating (0 to 100), Pigweed: 16 g ai/ha, 0 is no effect, 100 is complete control; for Plant response rating: Pigweed: scale 0 to 100
Description: (§1) Seeds of plant species selected from bluegrass (annual bluegrass, Poa annua), blackgrass (Alopecurus myosuroides), canarygrass (Phalaris minor), chickweed (common chickweed, Stellaria media), galium (catchweed bedstraw, Galium aparine), bromegrass, down (downy bromegrass, Bromus tectorum), Russian thistle (Salsola kali), field poppy (Papaver rhoeas), field violet (Viola arvensis), foxtail, green (green foxtail, Setaria viridis), deadnettle (henbit deadnettle, Lamium amplexicaule), ryegrass, Ital. (Italian ryegrass, Lolium multiflorum), kochia (Kochia scoparia), lambsquarters (Chenopodium album), oilseed rape (Brassica napus), pigweed (Amaranthus retroflexus), chamomile (scentless chamomile, Matricaria inodora), speedwell (bird's-eye speedwell, Veronica persica), barley, spring (spring barley, Hordeum vulgare), wheat, spring (spring wheat, Triticum aestivum), buckwheat, wild (wild buckwheat, Polygonum convolvulus), wild mustard (Sinapis arvensis), oat, wild (wild oat, Avena fatua), radish, wild (wild radish, Raphanus raphanistrum), […]), barley, winter (winter barley, Hordeum vulgare), and wheat, winter (winter wheat, Triticum aestivum) were planted into a silt loam soil and treated preemergence with test chemicals formulated in a non-phytotoxic solvent mixture which included a surfactant. At the same time, these species were planted in pots containing Sunshine Redi-Earth® planting medium comprising spaghnum peat moss, vermiculite, starter nutrients and dolomitic limestone and treated with postemergence applications of the test chemicals formulated in the same manner. Plants ranged in height from 2 to 18 cm (1- to 4-leaf stage). Treated plants and controls were maintained in a controlled growth environment for 14 to 21 d after which time all species were compared to controls and visually evaluated. […] A dash (-) response means no test result.

[2] = system: speedwell; test: Test D preemergence; assay type: in vivo, Veronica persica; conditions: for Plant response rating (0 to 100), Speedwell: 16 g ai/ha, 0 is no effect, 100 is complete control; for Plant response rating: Speedwell: scale 0 to 100
Description: as §1

[3] = system: oat, wild; test: Test D preemergence; assay type: in vivo, Avena fatua; conditions: for Plant response rating (0 to 100), Oat, Wild: 16 g ai/ha, 0 is no effect, 100 is complete control; for Plant response rating: Oat, Wild: scale 0 to 100
Description: as §1

[4] = system: blackgrass; test: Test A postemergence; assay type: in vivo, Alopecurus myosuroides; conditions: 0 to 100 scale (0 no effect, 100 complete control), approx. 10 d
Summary of the method: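 Seeds sown in loam soil–sand blend received a directed preemergence soil spray of test chemical in non-phytotoxic solvent with surfactant; postemergence plants, 2 to 10 cm at one- to two-leaf stage, were sprayed with the same formulation. Injury visually rated versus untreated controls after ~10 d in greenhouse, 0–100 scale.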

[5] = system: field violet; test: Test D preemergence; assay type: in vivo, Viola arvensis; conditions: for Plant response rating (0 to 100), Field Violet: 16 g ai/ha, 0 is no effect, 100 is complete control; for Plant response rating: Field Violet: scale 0 to 100
Description: as §1

[6] = system: lambsquarters; test: Test D preemergence; assay type: in vivo, Chenopodium album; conditions: for Plant response rating (0 to 100), Lambsquarters: 16 g ai/ha, 0 is no effect, 100 is complete control; for Plant response rating: Lambsquarters: scale 0 to 100
Description: as §1

[7] = system: waterhemp; test: Test C preemergence; assay type: in vivo, Amaranthus rudis; conditions: for Waterhemp plant response rating (0 to 100): Preemergence, visual rating after 13 to 15 d
Description: (§2) Seeds of plant species selected from blackgrass (Alopecurus myosuroides), ryegrass, Italian (Italian ryegrass, Lolium multiflorum), wheat (winter wheat, Triticum aestivum), galium (catchweed bedstraw, Galium aparine), corn (Zea mays), crabgrass, large (large crabgrass, Digitaria sanguinalis), foxtail, giant, (giant foxtail, Setaria faberii), johnsongrass (Sorghum halepense), lambsquarters (Chenopodium album), morningglory (Ipomoea coccinea), nutsedge, yellow (yellow nutsedge, Cyperus esculentus), pigweed (Amaranthus retroflexus), ragweed (common ragweed, Ambrosia elatior), soybean (Glycine max), barnyardgrass (Echinochloa crus-galli), oilseed rape (Brassica napus), waterhemp (common waterhemp, Amaranthus rudis), and velvetleaf (Abutilon theophrasti) were planted into a blend of loam soil and sand and treated preemergence with test chemicals formulated in a non-phytotoxic solvent mixture which included a surfactant. At the same time, plants selected from these crop and weed species and also chickweed (common chickweed, Stellaria media), oat, wild (wild oat, Avena fatua), and kochia (Kochia scoparia), were planted in pots containing Sunshine Redi-Earth® planting medium comprising spaghnum peat moss, vermiculite, starter nutrients and dolomitic limestone and treated with postemergence applications of test chemicals formulated in the same manner. Plants ranged in height from 2 to 18 cm (1- to 4-leaf stage) for postemergence treatments. […] A dash (-) response means no test result.

[8] = system: kochia; test: Test D preemergence; assay type: in vivo, Kochia scoparia; conditions: for Plant response rating (0 to 100), Kochia: 16 g ai/ha, 0 is no effect, 100 is complete control; for Plant response rating: Kochia: scale 0 to 100
Description: as §1

[9] = system: Russian thistle; test: Test D postemergence; assay type: in vivo, Salsola kali; conditions: scale 0 to 100
Description: as §1

[10] = system: pigweed; test: Test C preemergence; assay type: in vivo, Amaranthus retroflexus; conditions: for Plant response rating (scale of 0 to 100 where 0 is no effect and 100 is complete control): Pigweed, preemergence; for Pigweed plant response rating (0 to 100): Preemergence, visual rating after 13 to 15 d
Description: as §2

[11] = system: windgrass; test: Test D postemergence; assay type: in vivo, Apera spica-venti; conditions: scale 0 to 100
Description: as §1

[12] = system: kochia; test: Test D postemergence; assay type: in vivo, Kochia scoparia; conditions: scale 0 to 100
Description: as §1

[13] = system: bromegrass, down; test: Test D postemergence; assay type: in vivo, Bromus tectorum; conditions: scale 0 to 100
Description: as §1

[14] = system: windgrass; test: Test D preemergence; assay type: in vivo, Apera spica-venti; conditions: for Plant response rating (0 to 100), Windgrass: 16 g ai/ha, 0 is no effect, 100 is complete control; for Plant response rating: Windgrass: scale 0 to 100
Description: as §1

CCOc1nc(-c2ccc(C(F)(F)F)cc2)nn1Cc1ccnc(C(F)(F)F)c1 [Compound 35, 4-[[5-ethoxy-3-[4-(trifluoromethyl)phenyl]-1H-1,2,4-triazole-1-yl]methyl]-2-(trifluoromethyl)pyridine]
Plant response rating (0 to 100), Pigweed [1]: 100
Plant response rating: Pigweed ([1]; 62 g ai/ha): 100
Plant response rating: Pigweed ([1]; 125 g ai/ha): 100
Plant response rating (0 to 100), Speedwell [2]: 100
Plant response rating: Speedwell ([2]; 62 g ai/ha): 100
Plant response rating: Speedwell ([2]; 125 g ai/ha): 100
Plant response rating (0 to 100), Oat, Wild [3]: 40
Plant response rating: Oat, Wild ([3]; 62 g ai/ha): 75
Plant response rating: Oat, Wild ([3]; 125 g ai/ha): 80
Plant response rating, Blackgrass ([4]; 31 g ai/ha): 30
Plant response rating, Blackgrass ([4]; 125 g ai/ha): 50
Plant response rating (0 to 100), Field Violet [5]: 95
Plant response rating: Field Violet ([5]; 62 g ai/ha): 100
Plant response rating: Field Violet ([5]; 125 g ai/ha): 100
Plant response rating (0 to 100), Lambsquarters [6]: 85
Plant response rating: Lambsquarters ([6]; 62 g ai/ha): 95
Plant response rating: Lambsquarters ([6]; 125 g ai/ha): 100
Waterhemp plant response rating (0 to 100) ([7]; 31 g ai/ha): 100
Waterhemp plant response rating (0 to 100) ([7]; 62 g ai/ha): 100
Plant response rating (scale of 0 to 100 where 0 is no effect and 100 is complete control) ([7]; Waterhemp, preemergence, 250 g ai/ha): 100
Plant response rating (0 to 100), Kochia [8]: 90
Plant response rating: Kochia ([8]; 62 g ai/ha): 90
Plant response rating: Kochia ([8]; 125 g ai/ha): 90
Plant response rating: Russian Thistle ([9]; 16 g ai/ha): 70
Plant response rating: Russian Thistle ([9]; 31 g ai/ha): 75
Plant response rating: Russian Thistle ([9]; 62 g ai/ha): 80
Plant response rating: Russian Thistle ([9]; 125 g ai/ha): 85
Plant response rating (scale of 0 to 100 where 0 is no effect and 100 is complete control) ([10]; 125 g ai/ha): 100
Plant response rating (scale of 0 to 100 where 0 is no effect and 100 is complete control) ([10]; 250 g ai/ha): 100
Pigweed plant response rating (0 to 100) ([10]; 31 g ai/ha): 98
Pigweed plant response rating (0 to 100) ([10]; 62 g ai/ha): 100
Plant response rating: Windgrass ([11]; 16 g ai/ha): 55
Plant response rating: Windgrass ([11]; 31 g ai/ha): 75
Plant response rating: Windgrass ([11]; 62 g ai/ha): 80
Plant response rating: Windgrass ([11]; 125 g ai/ha): 90
Plant response rating: Kochia ([12]; 16 g ai/ha): 90
Plant response rating: Kochia ([12]; 31 g ai/ha): 90
Plant response rating: Kochia ([12]; 62 g ai/ha): 90
Plant response rating: Kochia ([12]; 125 g ai/ha): 90
Plant response rating: Bromegrass, Down ([13]; 16 g ai/ha): 40
Plant response rating: Bromegrass, Down ([13]; 31 g ai/ha): 55
Plant response rating: Bromegrass, Down ([13]; 62 g ai/ha): 60
Plant response rating: Bromegrass, Down ([13]; 125 g ai/ha): 75
Plant response rating (0 to 100), Windgrass [14]: 70
Plant response rating: Windgrass ([14]; 62 g ai/ha): 85
Plant response rating: Windgrass ([14]; 125 g ai/ha): 100

COc1nc(-c2ccc(Cl)cc2)nn1Cc1ccnc(C(F)(F)F)c1 [Compound 28]
Plant response rating (0 to 100), Pigweed [1]: 100
Plant response rating: Pigweed ([1]; 62 g ai/ha): 100
Plant response rating: Pigweed ([1]; 125 g ai/ha): 100
Plant response rating (0 to 100), Speedwell [2]: 75
Plant response rating: Speedwell ([2]; 62 g ai/ha): 100
Plant response rating: Speedwell ([2]; 125 g ai/ha): 100
Plant response rating (0 to 100), Oat, Wild [3]: 35
Plant response rating: Oat, Wild ([3]; 62 g ai/ha): 30
Plant response rating: Oat, Wild ([3]; 125 g ai/ha): 35
Plant response rating, Blackgrass ([4]; 125 g ai/ha): 10
Plant response rating, Blackgrass ([4]; 500 g ai/ha): 40
Plant response rating (0 to 100), Field Violet [5]: 65
Plant response rating: Field Violet ([5]; 62 g ai/ha): 95
Plant response rating: Field Violet ([5]; 125 g ai/ha): 100
Plant response rating (0 to 100), Lambsquarters [6]: 75
Plant response rating: Lambsquarters ([6]; 62 g ai/ha): 85
Plant response rating: Lambsquarters ([6]; 125 g ai/ha): 95
Plant response rating (0 to 100), Kochia [8]: 85
Plant response rating: Kochia ([8]; 62 g ai/ha): 85
Plant response rating: Kochia ([8]; 125 g ai/ha): 95
Plant response rating: Russian Thistle ([9]; 16 g ai/ha): 70
Plant response rating: Russian Thistle ([9]; 31 g ai/ha): 75
Plant response rating: Russian Thistle ([9]; 62 g ai/ha): 85
Plant response rating: Russian Thistle ([9]; 125 g ai/ha): 85
Plant response rating: Windgrass ([11]; 16 g ai/ha): 25
Plant response rating: Windgrass ([11]; 31 g ai/ha): 25
Plant response rating: Windgrass ([11]; 62 g ai/ha): 45
Plant response rating: Windgrass ([11]; 125 g ai/ha): 45
Plant response rating: Kochia ([12]; 16 g ai/ha): 85
Plant response rating: Kochia ([12]; 31 g ai/ha): 85
Plant response rating: Kochia ([12]; 62 g ai/ha): 85
Plant response rating: Kochia ([12]; 125 g ai/ha): 95
Plant response rating: Bromegrass, Down ([13]; 16 g ai/ha): 20
Plant response rating: Bromegrass, Down ([13]; 31 g ai/ha): 20
Plant response rating: Bromegrass, Down ([13]; 62 g ai/ha): 25
Plant response rating: Bromegrass, Down ([13]; 125 g ai/ha): 35
Plant response rating (0 to 100), Windgrass [14]: 25
Plant response rating: Windgrass ([14]; 62 g ai/ha): 50
Plant response rating: Windgrass ([14]; 125 g ai/ha): 80
